In BindingDB's records for doi:10.1016/S0960-894X(00)80255-3 (1991):
pIC50: −log10 of the molar value.

These molecules were tested against Tyrosine-protein kinase Lck (Homo sapiens, UniProt P06239) (assay: ChEBML_210745).
Description: Inhibitory concentration against phosphorylation of angiotensin I catalyzed by protein-tyrosine kinase p56lck

Tyrosine-protein kinase Lck, sequence (P06239 whole entry): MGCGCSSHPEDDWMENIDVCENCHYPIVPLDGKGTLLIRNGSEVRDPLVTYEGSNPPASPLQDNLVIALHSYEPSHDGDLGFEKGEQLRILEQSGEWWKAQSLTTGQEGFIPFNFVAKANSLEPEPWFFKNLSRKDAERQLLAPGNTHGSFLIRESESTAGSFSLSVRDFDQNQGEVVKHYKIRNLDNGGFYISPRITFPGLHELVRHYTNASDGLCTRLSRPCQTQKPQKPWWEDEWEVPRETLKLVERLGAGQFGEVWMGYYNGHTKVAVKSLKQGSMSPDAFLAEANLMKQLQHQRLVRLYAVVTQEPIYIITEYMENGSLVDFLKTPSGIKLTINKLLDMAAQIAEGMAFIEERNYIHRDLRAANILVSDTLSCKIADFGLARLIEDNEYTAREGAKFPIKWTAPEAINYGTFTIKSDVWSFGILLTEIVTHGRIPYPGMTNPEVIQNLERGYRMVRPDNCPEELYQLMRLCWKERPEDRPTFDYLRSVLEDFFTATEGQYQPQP

SMILES | pIC50
O=[N+]([O-])c1ccc(C/N=N/c2ccccc2)cc1 | < 2.48
COc1ccc(N=NCc2cc(O)ccc2O)cc1 [2-[(4-Methoxy-phenyl)-hydrazonomethyl]-benzene-1,4-diol] | 3.51
O=[N+]([O-])c1ccc(/N=N\Cc2cccc(O)c2O)c([N+](=O)[O-])c1 [3-[(2,4-Dinitro-phenyl)-hydrazonomethyl]-benzene-1,2-diol] | < 2.60
Oc1ccc(Br)cc1CN=Nc1ccccc1 [4-Bromo-2-(phenyl-hydrazonomethyl)-phenol] | < 2.58
Brc1ccc(N=NCc2cccnc2)cc1 [N-(4-Bromo-phenyl)-N'-[1-pyridin-3-yl-meth-(E)-ylidene]-hydrazine] | < 2.54
Brc1ccc(N=NCc2ccncc2)cc1 [N-(4-Bromo-phenyl)-N'-[1-pyridin-4-yl-meth-(E)-ylidene]-hydrazine] | < 2.54
c1ccc(N=NCc2ccccn2)cc1 [N-Phenyl-N'-[1-pyridin-2-yl-meth-(E)-ylidene]-hydrazine] | < 2.39
O=[N+]([O-])c1cccc(C/N=N/c2ccccc2)c1 [N-[1-(3-Nitro-phenyl)-meth-(E)-ylidene]-N'-phenyl-hydrazine] | < 2.48

Other lines, results leading:

pIC50 | SMILES
3.51 | COc1ccc(N=NCc2cccc(O)c2O)cc1 [3-[(4-Methoxy-phenyl)-hydrazonomethyl]-benzene-1,2-diol]
< 2.60 | COc1ccc(CN=Nc2ccc(Br)cc2)cc1O [5-[(4-Bromo-phenyl)-hydrazonomethyl]-2-methoxy-phenol]
< 2.54 | Brc1ccc(N=NCc2ccccn2)cc1 [N-(4-Bromo-phenyl)-N'-[1-pyridin-2-yl-meth-(E)-ylidene]-hydrazine]
< 2.39 | c1ccc(N=NCc2ccncc2)cc1 [N-Phenyl-N'-[1-pyridin-4-yl-meth-(E)-ylidene]-hydrazine]
